Assay results published in article PMC6934184, “Selective DNA-PKcs inhibition extends the therapeutic index of localized radiotherapy and chemotherapy” (The Journal of Clinical Investigation, 2019).

Molecular target: T1, MAPKAPK2 (Homo sapiens, UniProt P49137)
T1 construct: purchased Thermo Fisher Scientific (Life Technologies) SelectScreen
Assay: SelectScreen Z'LYTE
Type: biochemical
Procedure, shortened: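 NU5455 was profiled across the SelectScreen Broad panel of kinase activity and binding assays. Z'LYTE reactions such as CSF1R ran at apparent Km ATP, while the Adapta CAMK1 assay used ATP listed as 10. Values are given as percent.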

T1 sequence (P49137 whole entry): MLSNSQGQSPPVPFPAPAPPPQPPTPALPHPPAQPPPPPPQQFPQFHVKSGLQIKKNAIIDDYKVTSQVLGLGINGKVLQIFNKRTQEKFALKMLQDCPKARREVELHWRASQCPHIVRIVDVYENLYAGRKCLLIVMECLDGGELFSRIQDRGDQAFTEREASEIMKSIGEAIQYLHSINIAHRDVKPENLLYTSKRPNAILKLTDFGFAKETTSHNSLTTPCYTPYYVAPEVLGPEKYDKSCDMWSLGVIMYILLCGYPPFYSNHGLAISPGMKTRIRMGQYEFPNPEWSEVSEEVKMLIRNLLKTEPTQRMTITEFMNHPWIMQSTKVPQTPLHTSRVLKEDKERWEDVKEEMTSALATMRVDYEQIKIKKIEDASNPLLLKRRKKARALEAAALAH

## CN(C(=O)CN1CCOCC1)c1ccc2sc3c(-c4cccc5c(=O)cc(N6CC7CCC(C6)O7)oc45)cccc3c2c1 [NU5455]
  inhibition at 1 µM: -3.1%
